Measured values: patent publication US9133224B2, “Macrocyclic kinase inhibitors” (OSI Pharmaceuticals, LLC, priority 2010, dated 2015)
Like-named read-outs stand apart in the source and are kept apart here.

What was measured:
[1] = 22-membered ring
[2] = target: T1, GST-tagged full-length FAK enzyme (PTK2) (Homo sapiens, UniProt Q05397); assay: Biochemical Omnia Assay (FAK)
T1 construct: GST-tagged full-length FAK enzyme (PTK2, Invitrogen PV4085); GST; purchased Invitrogen PV4085
Method in brief: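 GST-tagged full-length human FAK, added at 50 nM to compound and a peptide (40 μM)/ATP (200 μM) solution, stated before mixing. Omnia peptide phosphorylation followed continuously by fluorescence increase. Duplicate points; IC50 by nonlinear fitting of linear progress-curve slopes.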

FAK = target: T2, FAK (Homo sapiens, UniProt Q05397); assay: Cell-based capture ELISA for inhibition of FAK autophosphorylation [pY397] in U87MG cells
T2 construct: endogenous in cells; host or cells: U87MG glioblastoma cells (ATCC HTB-14)
T2 sequence (Q05397 whole entry): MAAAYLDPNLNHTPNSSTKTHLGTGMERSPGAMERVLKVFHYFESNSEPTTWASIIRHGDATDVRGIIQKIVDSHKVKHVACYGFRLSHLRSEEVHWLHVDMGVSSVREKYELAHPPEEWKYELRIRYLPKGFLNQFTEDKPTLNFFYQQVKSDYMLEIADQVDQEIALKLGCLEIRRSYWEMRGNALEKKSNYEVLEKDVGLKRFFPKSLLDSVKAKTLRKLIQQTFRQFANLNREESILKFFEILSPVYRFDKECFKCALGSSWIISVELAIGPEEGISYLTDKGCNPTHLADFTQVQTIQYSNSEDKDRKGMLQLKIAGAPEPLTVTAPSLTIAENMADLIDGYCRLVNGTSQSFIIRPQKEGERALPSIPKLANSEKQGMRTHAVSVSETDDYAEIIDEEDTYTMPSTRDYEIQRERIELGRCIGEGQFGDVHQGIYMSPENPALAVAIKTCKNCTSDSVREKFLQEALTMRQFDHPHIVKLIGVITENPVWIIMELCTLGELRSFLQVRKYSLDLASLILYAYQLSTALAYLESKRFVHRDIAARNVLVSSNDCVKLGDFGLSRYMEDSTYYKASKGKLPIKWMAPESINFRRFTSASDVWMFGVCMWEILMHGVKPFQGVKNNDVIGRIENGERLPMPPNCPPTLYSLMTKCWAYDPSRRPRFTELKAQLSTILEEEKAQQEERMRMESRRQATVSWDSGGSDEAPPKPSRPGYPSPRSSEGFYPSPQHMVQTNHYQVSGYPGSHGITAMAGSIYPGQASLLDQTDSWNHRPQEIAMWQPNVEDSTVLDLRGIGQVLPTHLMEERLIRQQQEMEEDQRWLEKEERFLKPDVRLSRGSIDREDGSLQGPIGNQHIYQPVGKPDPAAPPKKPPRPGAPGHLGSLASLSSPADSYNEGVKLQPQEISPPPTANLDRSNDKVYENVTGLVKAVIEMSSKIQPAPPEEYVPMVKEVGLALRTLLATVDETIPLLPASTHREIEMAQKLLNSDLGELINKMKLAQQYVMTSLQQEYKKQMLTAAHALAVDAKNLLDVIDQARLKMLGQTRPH
Method in brief: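 U87MG cells on fibronectin-coated plates treated with compounds for 2 h at 37° C in complete growth medium (0.6% DMSO final). Lysates captured on anti-FAK ELISA plates; pY397 detected with phospho-specific antibody, HRP and chromogen at 450 nm. Variant run with 50% (v/v) mouse or human plasma.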

[3] = 50% (v/v) human plasma, mean IC50, read-out: FAK Activity Mechanistic (U87MG) HP
[4] = 50% (v/v) mouse plasma, mean IC50, read-out: FAK Activity Mechanistic (U87MG) MP
[5] = no plasma present, mean IC50, read-out: FAK Activity Mechanistic (U87MG) NP
[6] = from CCC[CH2][Sn]([CH2]CCC)([CH2]CCC)[c]1cn(CCCOP(=O)(Cc2ccc(Nc3ncc(C(F)(F)F)c(Nc4ccc(Br)nc4C(=O)NC)n3)c(OC)c2)OCC)nn1, cc_pd bond, 2 steps
[7] = from CCC[CH2][Sn]([CH2]CCC)([CH2]CCC)[c]1cn(CCCOP(=O)(CCC)Cc2ccc(Nc3ncc(C(F)(F)F)c(Nc4ccc(Br)nc4C(=O)NC)n3)c(OC)c2)nn1, cc_pd bond
[8] = mean IC50, [ATP] = 50uM, read-out: FAK Activity Biochemical OMNIA, [ATP] = 50uM

T1 sequence (Q05397 whole entry): as above

Row | SMILES | IC50 [2] [nM] | IC50 (FAK; [3]) [nM] | IC50 (FAK; [5]) [nM] | further results
1 | CCO[P@]1(=O)Cc2ccc(c(OC)c2)Nc2ncc(C(F)(F)F)c(n2)Nc2ccc(nc2C(=O)NC)-c2cc(C(=O)OC)n(c2)CCCO1 (mixture of isomers) | – | – | – | ring closure, isolated yield ([1]; from CCOP(=O)(O)Cc1ccc(Nc2ncc(C(F)(F)F)c(Nc3ccc(-c4cc(C(=O)OC)n(CCCO)c4)nc3C(=O)NC)n2)c(OC)c1, ester bond, PyBOP/DIEA, DCE, 1.53 mM, 25.0 °C): 58%
2 | CCC[P@]1(=O)Cc2ccc(c(OC)c2)Nc2ncc(C(F)(F)F)c(n2)Nc2ccc(nc2C(=O)NC)-c2cnn(c2)CCCO1 (mixture of isomers) | – | – | – | ring closure, isolated yield ([1]; from CCCP(=O)(O)Cc1ccc(Nc2ncc(C(F)(F)F)c(Nc3ccc(-c4cnn(CCCO)c4)nc3C(=O)NC)n2)c(OC)c1, ester bond, DCC, 2 steps): 55%
3 | CCCP1(=O)Cc2ccc(c(OC)c2)Nc2ncc(C(F)(F)F)c(n2)Nc2ccc(nc2C(=O)NC)-c2cnn(c2)CCCO1 (racemic) | – | – | – | ring closure, yield of all isomers (from CCCP(=O)(O)Cc1ccc(Nc2ncc(C(F)(F)F)c(Nc3ccc(-c4cnn(CCCO)c4)nc3C(=O)NC)n2)c(OC)c1, ester bond, DCC, pyridine, 15.0 mM, 115.0 °C, 5.5 h, 2 steps): 55%
4 | CCOP1(=O)Cc2ccc(c(OC)c2)Nc2ncc(C(F)(F)F)c(n2)Nc2ccc(nc2C(=O)NC)-c2cc(C(=O)OC)n(c2)CCCO1 (racemic) [Example 38] | < 400 | < 400 | < 400 | ring closure, yield of all isomers (from CCOP(=O)(O)Cc1ccc(Nc2ncc(C(F)(F)F)c(Nc3ccc(-c4cc(C(=O)OC)n(CCCO)c4)nc3C(=O)NC)n2)c(OC)c1, ester bond, PyBOP/DIPEA, 1,2-dichloroethane, 1.53 mM, 25.0 °C, 24.0 h): 58%; IC50 (FAK; [4]): 400 to 4000 nM
5 | CCO[P@]1(=O)Cc2ccc(c(OC)c2)Nc2ncc(C(F)(F)F)c(n2)Nc2ccc(cc2C(=O)N(CC)CC)-c2cnn(c2)CCCO1 (mixture of isomers) | – | – | – | ring closure, isolated yield ([1]; from CCOP(=O)(O)Cc1ccc(Nc2ncc(C(F)(F)F)c(Nc3ccc(-c4cnn(CCCO)c4)cc3C(=O)N(CC)CC)n2)c(OC)c1, ester bond, PyBOP/DIEA, DCE/DMF, 1.03 mM, 25.0 °C): 43%
6 | CCO[P@@]1(=O)Cc2ccc(c(OC)c2)Nc2ncc(C(F)(F)F)c(n2)Nc2ccc(nc2C(=O)NC)-c2cn(nn2)CCCO1 | – | – | – | ring closure, isolated yield [1, 6]: 24%
7 | CCCP1(=O)Cc2ccc(c(OC)c2)Nc2ncc(C(F)(F)F)c(n2)Nc2ccc(nc2C(=O)NC)-c2cn(nn2)CCCO1 (racemic) | – | – | – | ring closure, yield of all isomers [7]: 19%
8 | CCO[P@@]1(=O)Cc2ccc(c(OC)c2)Nc2ncc(C(F)(F)F)c(n2)Nc2ccc(c3c2C(=O)N(C)C3)-c2cnn(c2)CCCO1 | – | – | – | ring closure, yield of all isomers (from CCOP(=O)(O)Cc1ccc(Nc2ncc(C(F)(F)F)c(Nc3ccc(-c4cnn(CCCO)c4)c4c3C(=O)N(C)C4)n2)c(OC)c1, ester bond, PyBOP/DIPEA, 1,2-dichloroethane, 1.17 mM, 72.0 h): 14.1%
9 | CCOP1(=O)Cc2ccc(c(OC)c2)Nc2ncc(C(F)(F)F)c(n2)Nc2ccc(cc2C(=O)N(CC)CC)-c2cnn(c2)CCCO1 (racemic) | – | – | – | ring closure, yield of all isomers (from CCOP(=O)(O)Cc1ccc(Nc2ncc(C(F)(F)F)c(Nc3ccc(-c4cnn(CCCO)c4)cc3C(=O)N(CC)CC)n2)c(OC)c1, ester bond, PyBOP/DIPEA, 1,2-dichloroethane, 1.03 mM, 25.0 °C, 24.0 h): 43%
10 | CCC[P@@]1(=O)Cc2ccc(c(OC)c2)Nc2ncc(C(F)(F)F)c(n2)Nc2ccc(nc2C(=O)NC)-c2cn(nn2)CCCO1 (mixture of isomers) | – | – | – | ring closure, isolated yield [1, 7]: 19%
11 | CCOP1(=O)Cc2ccc(c(OC)c2)Nc2ncc(C(F)(F)F)c(n2)Nc2ccc(nc2C(=O)NC)-c2cn(nn2)CCCO1 (single isomer, unassigned) [Example 64A] | – | < 400 | < 400 | IC50 [2, 8]: < 400 nM; ring closure, yield of all isomers [6]: 24%
12 | CCOP1(=O)Cc2ccc(c(OC)c2)Nc2ncc(C(F)(F)F)c(n2)Nc2ccc(nc2C(=O)NC)-c2cnn(c2)CCCO1 (racemic) [Example 6] | < 400 | < 400 | < 400 | –
13 | CCOP1(=O)Cc2ccc(c(OC)c2)Nc2ncc(C(F)(F)F)c(n2)Nc2ccc(nc2C(=O)NC)-c2cnn(c2)CC2(COC2)CO1 (racemic) | – | – | – | ring closure, yield of all isomers (from CCOP(=O)(Cc1ccc(Nc2ncc(C(F)(F)F)c(Nc3ccc(Br)nc3C(=O)NC)n2)c(OC)c1)OCC1(Cn2cc(B3OC(C)(C)C(C)(C)O3)cn2)COC1, cc_pd bond, Pd(dppf)Cl2·CH2Cl2, K2CO3, 1,4-dioxane, 13.5 mM, 100.0 °C, 0.5 h): 43%
14 | CNC(=O)c1nc2ccc1Nc1nc(ncc1C(F)(F)F)Nc1ccc(cc1OC)CP(=O)(O)OCCCn1cc-2cn1 [Example 65, 10-hydroxy-14-methoxy-N-methyl-20-(trifluoromethyl)-9-oxa-4,5,16,18,22,25,28-heptaaza-10-phosphapentacyclo[21.2.2.2^12,15.1^2,5.1^17,21]hentriaconta-1(25),2(31),3,12,14,17(28),18,20,23,26,29-undecaene-24-carboxamide 10-oxide] | – | > 4000 | > 4000 | IC50 [2, 8]: < 400 nM; IC50 (FAK; [4]): > 4000 nM
15 | CCOP1(=O)Cc2ccc(c(OC)c2)Nc2ncc(C(F)(F)F)c(n2)Nc2ccc(nc2C(=O)NC)-c2cc(C(=O)N3CC(C)(O)C3)n(c2)CCCO1 (racemic) [Example 40] | < 400 | – | < 400 | IC50 (FAK; FAK Activity Mechanistic (U87MG) MP, 50% (v/v) mouse plasma, mean IC50): 400 to 4000 nM
16 | CNC(=O)c1nc2ccc1Nc1nc(ncc1C(F)(F)F)Nc1ccc(cc1OC)CP(=O)(C(C)C)OCCCn1cc-2cn1 (racemic) [Example 68] | – | < 400 | < 400 | IC50 [2, 8]: < 400 nM; IC50 (FAK; [4]): < 400 nM
17 | CCOP1(=O)Cc2cc(OC)c(cc2Cl)Nc2ncc(C(F)(F)F)c(n2)Nc2ccc(nc2C(=O)NC)-c2cnn(c2)CCCO1 (racemic) [Example 56] | < 400 | > 4000 | < 400 | IC50 (FAK; [4]): 400 to 4000 nM
18 | CCOP1(=O)Cc2ccc(c(OC)c2)Nc2ncc(C(F)(F)F)c(n2)Nc2ccc(nc2C(=O)NC)-c2cnn(c2)CC2(COC2)CO1 (single isomer, unassigned) [Example 44A] | < 400 | < 400 | < 400 | –
19 | CCOP1(=O)Cc2ccc(cc2)Nc2ncc(C(F)(F)F)c(n2)Nc2ccc(cc2C(=O)NC)-c2cnn(c2)CCCO1 (racemic) [Example 8] | < 400 | < 400 | < 400 | –
